# Calls of active or inactive are those of the source.
# Assays:
# [1] = biological target: T1, Ubiquitin-conjugating enzyme E2 N (Homo sapiens, UniProt P61088); format: functional;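 further: Dose-response confirmation in a TR-FRET assay detecting UBC13-driven polyubiquitin chain formation, inhibition measured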
# T1 sequence (P61088 whole entry): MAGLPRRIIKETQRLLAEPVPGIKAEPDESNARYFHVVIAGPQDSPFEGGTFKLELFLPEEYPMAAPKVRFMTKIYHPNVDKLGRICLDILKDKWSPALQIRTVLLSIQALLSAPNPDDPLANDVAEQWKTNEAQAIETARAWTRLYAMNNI
# [2] = biological target: T2, Rac GTPase-activating protein 1 (Homo sapiens, UniProt Q9H0H5); experiment: MgcRacGAP GTPase-activating activity inhibitors, confirmation, biochemical, ADP Hunter fluorescence, primary and confirmatory (AID 624330); format: functional
# T2 sequence (Q9H0H5 whole entry): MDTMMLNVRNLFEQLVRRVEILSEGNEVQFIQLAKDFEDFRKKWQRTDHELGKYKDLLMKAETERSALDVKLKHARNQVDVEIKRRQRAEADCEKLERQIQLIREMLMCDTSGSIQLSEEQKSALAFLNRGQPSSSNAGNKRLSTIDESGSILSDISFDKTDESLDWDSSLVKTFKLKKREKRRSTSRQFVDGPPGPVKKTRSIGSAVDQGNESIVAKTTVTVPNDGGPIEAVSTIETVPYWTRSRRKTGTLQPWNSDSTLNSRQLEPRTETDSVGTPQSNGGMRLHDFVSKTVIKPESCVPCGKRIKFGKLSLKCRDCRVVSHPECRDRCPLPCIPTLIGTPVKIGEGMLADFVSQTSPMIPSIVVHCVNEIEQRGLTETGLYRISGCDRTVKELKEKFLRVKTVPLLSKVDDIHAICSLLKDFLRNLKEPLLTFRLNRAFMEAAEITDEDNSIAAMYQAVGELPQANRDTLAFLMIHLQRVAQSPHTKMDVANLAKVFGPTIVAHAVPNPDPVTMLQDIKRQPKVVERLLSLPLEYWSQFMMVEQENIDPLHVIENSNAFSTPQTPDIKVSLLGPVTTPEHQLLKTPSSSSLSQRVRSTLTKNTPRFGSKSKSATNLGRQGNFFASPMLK
# Large T antigen = Large T antigen (Simian virus 40, UniProt P03070); format: functional, Betapolyomavirus macacae;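 further: Confirmatory-stage PubChem screen for compounds that inhibit SV40 T antigen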
# Nonstructural protein 1 = Nonstructural protein 1 (Influenza A virus, UniProt Q194T2); format: functional, Influenza A virus (A/California/07/2009(H1N1))
# [3] = biological target: FAD-linked sulfhydryl oxidase ALR (Homo sapiens, UniProt P55789); experiment: inhibitors of human ALR sulfhydryl oxidase, dose response, biochemical, H2O2 detection, luminescence, cherry-pick (AID 493248)
# [4] = biological target: T3, Polyadenylate-binding protein 1 (Homo sapiens, UniProt P11940); experiment: PABP1 MLLE–PAM2 interaction inhibitors, dose response, miRNA deadenylation inhibitor project, biochemical, fluorescence polarization, Cy5-PAM2 peptide, secondary (AID 602260); format: functional; details: read-out: IC50_Mean
# [5] = biological target: T3, Polyadenylate-binding protein 1; experiment: PABP1 MLLE–PAM2 binding inhibitor potency, dose response, biochemical, fluorescence polarization, FITC-PAM2 peptide (AID 602259); format: functional; details: read-out: IC50_Mean
# INS1 = experiment: beta cell apoptosis inhibitors, cytokine rescue, dose response, luminescence, retest (AID 449756); format: functional, cell-based; details: Rattus norvegicus;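 further: cell death triggered by IL-1 beta plus TNF-alpha plus IFN-gamma mixture; protective hits raise ATP signal compared with cytokine alone wells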
# [6] = Luminescence Cell-Based Dose Retest to Confirm Inhibitors of Cancer Stem Cells. [Related pubchem assays (depositor defined):AID2717, AID2721]; format: functional; details: Homo sapiens
# Vero = experiment: cells; format: functional; details: Chlorocebus sabaeus
# [7] = growth suppression of beta-catenin-knockout colon cells, dose response, cell-based, HCT116, human colon tumor (AID 1045); format: functional;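 further: HCT116 colon tumor cells with beta catenin knocked out; cells exposed to compound for 60 hours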
# [8] = growth suppression of PTEN-null colon cells, dose response, cell-based, HCT116 PTEN knockout (AID 1047); format: functional;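 further: HCT116 colon tumor cells with PTEN knocked out; cells exposed to compound for 60 hours before readout; potency for loss of cell viability measured by luminescence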
# Streptococcus = experiment: Group A Streptococcus viability loss, dose response, counter-screen for streptokinase expression inhibitor project, luminescence, BacTiterGlo (AID 1915); format: functional, organism-based;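 further: potency for reduction of bacterial viability or growth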
# Streptokinase A = biological target: T4, Streptokinase A (Streptococcus pyogenes serotype M1, UniProt P10520); experiment: S. pyogenes streptokinase expression inhibitors, potency, dose response, plasminogen activation absorbance, OD405 (AID 1914); format: functional, Streptococcus pyogenes M1 GAS;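 further: secreted streptokinase activity via plasminogen activation per viability signal from cell pellet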
# T4 sequence (P10520 whole entry): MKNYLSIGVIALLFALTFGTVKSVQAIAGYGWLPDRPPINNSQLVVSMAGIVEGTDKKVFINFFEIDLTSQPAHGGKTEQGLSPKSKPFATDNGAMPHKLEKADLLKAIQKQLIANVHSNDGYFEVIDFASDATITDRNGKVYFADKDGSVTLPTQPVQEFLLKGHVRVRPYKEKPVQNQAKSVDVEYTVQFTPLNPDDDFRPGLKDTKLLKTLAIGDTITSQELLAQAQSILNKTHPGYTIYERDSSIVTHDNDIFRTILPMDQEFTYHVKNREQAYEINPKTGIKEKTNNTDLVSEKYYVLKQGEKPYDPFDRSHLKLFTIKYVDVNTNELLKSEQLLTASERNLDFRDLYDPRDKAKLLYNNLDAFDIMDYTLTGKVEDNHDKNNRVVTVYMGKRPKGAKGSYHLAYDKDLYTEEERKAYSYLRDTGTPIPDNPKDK
# [9] = test system: Streptococcus sp. 'group A'; experiment: growth inhibition of control SK(-) GAS strain, dose response, counter-screen for streptokinase expression inhibitor project, luminescence, kanamycin, BacTiterGlo, confirmation (AID 1900); format: functional, organism-based
# Cytochrome P450 2C9 = Cytochrome P450 2C9 (Homo sapiens, UniProt P11712)
# [10] = HEp-2 cell cytotoxicity, dose response, cytotoxicity control for RSV inhibitor project, HTS (AID 2410); format: functional; details: human respiratory syncytial virus
# [11] = biological target: T5, Heat shock factor protein 1 (Mus musculus, UniProt P38532); experiment: inhibition of MG132-induced HSE-luciferase signal, confirmation, cell-based, NIH3T3, luminescence, dose retest (AID 2382); format: functional;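 further: NIH3T3 fibroblasts with HSF1-driven luciferase reporter stressed by proteasome inhibitor MG132; luminescence from HSF1-driven luciferase expression after 8 hours of MG132 stress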
# T5 sequence (P38532 whole entry): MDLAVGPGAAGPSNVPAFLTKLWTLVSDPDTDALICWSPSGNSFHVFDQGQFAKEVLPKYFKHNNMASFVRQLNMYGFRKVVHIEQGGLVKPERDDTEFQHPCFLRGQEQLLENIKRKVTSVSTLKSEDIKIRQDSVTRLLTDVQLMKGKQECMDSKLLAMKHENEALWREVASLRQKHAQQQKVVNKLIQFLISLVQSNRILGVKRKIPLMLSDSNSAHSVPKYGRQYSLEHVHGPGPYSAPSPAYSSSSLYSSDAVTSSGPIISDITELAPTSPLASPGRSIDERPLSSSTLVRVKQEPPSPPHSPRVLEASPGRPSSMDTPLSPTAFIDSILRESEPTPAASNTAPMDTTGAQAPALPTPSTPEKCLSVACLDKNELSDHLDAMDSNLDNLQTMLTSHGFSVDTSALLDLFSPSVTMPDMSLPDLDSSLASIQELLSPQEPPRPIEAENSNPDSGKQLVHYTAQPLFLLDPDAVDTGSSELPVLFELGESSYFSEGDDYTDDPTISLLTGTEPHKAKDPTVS
# H9c2 = experiment: cells; format: functional, cell-based; details: Rattus norvegicus, H9c2, Myocardium;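 further: confirmatory concentration-response retest of ultra-high-throughput screening hits for modulation of myocardial damage; cell death induced by hydrogen peroxide oxidative stress; compound pretreatment for 60 min then peroxide exposure for 2 h; potency is for protecting the cells against peroxide damage rather than for killing them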
# [12] = biological target: T5, Heat shock factor protein 1; experiment: HSF1 potentiators in luciferase reporter cells, confirmation, cell-based, NIH3T3, luminescence, dose retest (AID 435004); format: functional;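 further: stress induced by proteasome inhibitor MG132 added 30 min after compound; luciferase reporter driven by HSF1 response element in NIH3T3 cells; actives raise luminescence as potentiators of the MG132 stress response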
# Chain of Nonstructural protein 1 (Q194T2 whole entry): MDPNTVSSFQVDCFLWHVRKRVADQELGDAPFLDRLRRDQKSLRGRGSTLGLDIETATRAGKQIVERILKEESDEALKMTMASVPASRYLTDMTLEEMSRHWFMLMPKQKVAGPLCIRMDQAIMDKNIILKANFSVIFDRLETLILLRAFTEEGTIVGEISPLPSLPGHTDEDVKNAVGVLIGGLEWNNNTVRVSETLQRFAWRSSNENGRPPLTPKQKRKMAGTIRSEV
# Chain of FAD-linked sulfhydryl oxidase ALR (P55789 whole entry): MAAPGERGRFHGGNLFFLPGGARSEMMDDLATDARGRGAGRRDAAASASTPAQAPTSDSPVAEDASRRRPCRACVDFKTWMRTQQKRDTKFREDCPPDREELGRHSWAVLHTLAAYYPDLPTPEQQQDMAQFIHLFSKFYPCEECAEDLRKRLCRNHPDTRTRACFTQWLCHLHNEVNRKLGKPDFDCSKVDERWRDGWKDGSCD
# T3 sequence (P11940 whole entry): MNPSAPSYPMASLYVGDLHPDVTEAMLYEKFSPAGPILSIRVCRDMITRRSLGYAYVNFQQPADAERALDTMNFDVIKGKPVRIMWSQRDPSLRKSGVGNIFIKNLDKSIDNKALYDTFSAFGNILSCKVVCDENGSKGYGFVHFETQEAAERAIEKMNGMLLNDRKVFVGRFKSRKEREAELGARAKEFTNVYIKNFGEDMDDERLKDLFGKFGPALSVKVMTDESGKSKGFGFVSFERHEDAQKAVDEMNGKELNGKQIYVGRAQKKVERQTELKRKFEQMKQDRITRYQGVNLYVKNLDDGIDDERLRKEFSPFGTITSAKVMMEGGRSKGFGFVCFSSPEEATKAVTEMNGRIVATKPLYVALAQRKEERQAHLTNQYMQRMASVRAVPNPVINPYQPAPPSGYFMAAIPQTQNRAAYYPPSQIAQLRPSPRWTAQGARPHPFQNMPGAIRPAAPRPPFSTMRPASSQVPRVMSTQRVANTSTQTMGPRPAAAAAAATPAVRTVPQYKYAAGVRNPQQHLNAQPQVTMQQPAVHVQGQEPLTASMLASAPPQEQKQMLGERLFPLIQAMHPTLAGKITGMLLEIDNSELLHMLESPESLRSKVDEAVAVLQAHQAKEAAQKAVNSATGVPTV
# Chain of Large T antigen (P03070 whole entry): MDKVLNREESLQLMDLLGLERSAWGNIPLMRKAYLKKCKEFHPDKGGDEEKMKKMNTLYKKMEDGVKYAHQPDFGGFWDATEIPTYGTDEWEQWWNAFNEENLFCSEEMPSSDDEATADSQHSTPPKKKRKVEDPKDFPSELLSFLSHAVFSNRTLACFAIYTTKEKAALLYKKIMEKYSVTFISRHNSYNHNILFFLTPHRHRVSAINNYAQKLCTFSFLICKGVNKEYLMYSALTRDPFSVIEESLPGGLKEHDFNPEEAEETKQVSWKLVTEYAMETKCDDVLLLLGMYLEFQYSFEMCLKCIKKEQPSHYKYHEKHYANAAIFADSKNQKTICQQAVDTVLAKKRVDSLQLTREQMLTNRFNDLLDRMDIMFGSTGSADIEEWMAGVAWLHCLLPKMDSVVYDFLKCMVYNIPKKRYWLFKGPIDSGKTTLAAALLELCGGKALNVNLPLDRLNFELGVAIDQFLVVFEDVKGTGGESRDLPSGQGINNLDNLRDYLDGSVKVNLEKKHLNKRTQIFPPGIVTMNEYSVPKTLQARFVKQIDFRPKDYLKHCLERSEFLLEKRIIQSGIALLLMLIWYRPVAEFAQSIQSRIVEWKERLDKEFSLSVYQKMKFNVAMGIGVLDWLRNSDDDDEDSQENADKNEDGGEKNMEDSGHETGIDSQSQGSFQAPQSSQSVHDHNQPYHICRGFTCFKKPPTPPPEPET
# Chain of Cytochrome P450 2C9 (P11712 whole entry): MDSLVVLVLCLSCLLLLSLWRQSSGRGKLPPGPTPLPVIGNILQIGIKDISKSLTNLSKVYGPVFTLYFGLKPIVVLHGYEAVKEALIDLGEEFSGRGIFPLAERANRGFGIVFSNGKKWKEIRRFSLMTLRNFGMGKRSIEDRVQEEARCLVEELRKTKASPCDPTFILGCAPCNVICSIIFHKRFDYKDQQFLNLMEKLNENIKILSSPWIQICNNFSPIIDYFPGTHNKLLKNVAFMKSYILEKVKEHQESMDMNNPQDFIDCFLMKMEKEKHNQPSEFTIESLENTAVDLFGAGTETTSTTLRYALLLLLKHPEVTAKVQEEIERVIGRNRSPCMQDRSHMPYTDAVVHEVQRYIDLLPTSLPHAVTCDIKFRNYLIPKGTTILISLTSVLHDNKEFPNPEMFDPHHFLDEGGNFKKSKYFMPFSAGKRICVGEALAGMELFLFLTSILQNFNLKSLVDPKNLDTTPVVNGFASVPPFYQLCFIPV
structure (smiles),measurement,setting,value
CCC(C)[C@H]1CNCCN1CCc1cc(C(F)(F)F)cc(C(F)(F)F)c1 (stereo partly drawn),IC50,[1],> 20 µM (inactive)
Oc1ccc(/C=N/NC(=S)NCCN2CCOCC2)c(O)c1,IC50,[2],20.6 µM (active)
same,IC50,Large T antigen,7.26 µM (active)
same,IC50,Nonstructural protein 1,6.59 µM (active)
CCN(CC)C(=O)CC(c1ccc(N(C)C)cc1)c1c(OC)cc(OC)c2ccc(=O)oc12 (stereo not drawn),AC50,[3],3.89 µM (active)
CCC(=O)Nc1ccc(SC#N)cc1C,IC50,[4],> 66 µM (inactive)
same,AC50,[3],0.497 µM (active)
same,IC50,[5],> 66 µM (inactive)
CCN(CC)CCC(c1ccc(N(C)C)cc1)c1c(OC)cc(OC)c2c(-c3ccccc3)cc(=O)oc12 (stereo not drawn),IC50,[1],> 20 µM (inactive)
same,IC50,Nonstructural protein 1,13.6 µM (active)
O=C(Nc1ccncc1)C1CCN(S(=O)(=O)c2cccc(C(F)(F)F)c2)CC1,IC50,[1],> 20 µM (inactive)
Cc1cc2nc(NCCCO)n(CC(=O)c3cc(C(C)(C)C)c(O)c(C(C)(C)C)c3)c2cc1C,IC50,[1],> 20 µM (inactive)
same,AC50,INS1,8.03 µM (active)
same,AC50,[6],3.14 µM (active)
COc1ccc(NCCc2ccccn2)cc1,IC50,Large T antigen,19.3 µM (active)
O=C(CCC(=O)N1CCOc2ccc(Cl)cc21)NCCCN1CCC(Cc2ccccc2)CC1,IC50,[1],> 20 µM (inactive)
same,CC50,Vero,18.9 µM (active)
CCOC(=O)N1CCN(S(=O)(=O)c2ccc(C(=O)Nc3nc4c(s3)CC(C)CC4)cc2)CC1 (stereo not drawn),EC50,[7],1.7 µM (active)
same,EC50,[8],1.25 µM (active)
Nc1nc(-c2ccco2)cs1,IC50,Large T antigen,79.2 µM (active)
Oc1ccc2ccccc2c1N=Nc1ccccc1F,IC50,Nonstructural protein 1,20.4 µM (active)
Cc1ccc(S(=O)(=O)N(C)C)cc1NC(=O)CSc1ncc(C(F)(F)F)cc1Cl,EC50,[7],647 µM (active)
same,EC50,[8],88.7 µM (active)
Cc1[nH]c2ccccc2c1C(c1ccccn1)c1c(C)[nH]c2ccccc12,EC50,Streptococcus,12.1 µM (active)
same,EC50,Streptokinase A,> 150 µM (not active)
same,IC50,Nonstructural protein 1,> 100 µM (active)
same,EC50,[9],5.36 µM (active)
CNC(C)Cc1ccccc1Sc1ccc(O)cc1 (stereo not drawn),AC50,[3],3.15 µM (active)
same,IC50,Large T antigen,94.4 µM (active)
same,AC50,Cytochrome P450 2C9,28.2 µM (inconclusive)
CCCn1c2ccccc2c2nc3ccccc3nc21,CC50,[10],> 50 µM (active)
same,IC50,[1],> 20 µM (inactive)
Cc1cc(C(=O)Nc2nnc(-c3ccccc3)s2)no1,AC50,[3],18.9 µM (active)
COc1ccc(S(=O)(=O)N/N=C(/C)c2ccncc2)c(OC)c1,AC50,[3],0.832 µM (active)
CCn1c(S)nnc1-c1ccc2[nH]c(C)c(C)c2c1,AC50,[3],2.49 µM (active)
same,EC50,[11],> 195 µM (not active)
CN(C)c1ccc(NC(=O)CC2NCCNC2=O)cc1 (stereo not drawn),IC50,Large T antigen,10.1 µM (active)
Nc1ccc2[nH]c(-c3cccs3)nc2c1,IC50,Large T antigen,11.9 µM (active)
same,IC50,H9c2,15.5 µM (active)
O=C1c2ccccc2C(=O)C12OC2c1ccc(Cl)cc1Cl (stereo not drawn),EC50,[7],20.3 µM (active)
same,EC50,[8],29.6 µM (active)
O=C(Nc1ccc(Cl)c(Cl)c1)Oc1ccc(NC(=O)c2ccco2)cc1,IC50,Large T antigen,> 100 µM (active)
CC1C/C(=N/Nc2ccc([N+](=O)[O-])cc2[N+](=O)[O-])CC(C)(C)C1 (stereo not drawn),IC50,Nonstructural protein 1,46 µM (active)
Cc1ccc(Nc2c(N)c(=O)oc3ccccc23)cc1,EC50,[7],12.3 µM (active)
same,EC50,[8],13.6 µM (active)
same,EC50,[12],> 260 µM (inactive)
CCCCC(=O)Nc1ccc2c3c(cccc13)C(=O)N2CC,IC50,[1],> 20 µM (inactive)
CC(=O)Nc1ccc(SCCN2CC[C@@H](C(C)(C)C)CCC2=O)cc1,IC50,[4],> 66 µM (inactive)
same,AC50,[3],0.25 µM (active)
same,IC50,[5],> 66 µM (inactive)
COc1ccccc1NS(=O)(=O)c1ccc(C)c(C(=O)N2CCN(c3ccc(O)cc3)CC2)c1,IC50,[2],24.2 µM (active)
same,AC50,[3],0.022 µM (active)
COc1ccc(C(=O)COC(=O)c2ccc(NC(=O)c3ccccc3)cc2)cc1,EC50,[7],49.9 µM (active)
same,EC50,[8],41.1 µM (active)
same,AC50,Cytochrome P450 2C9,1.41 µM (inconclusive)
CCc1ccc(/C=N/NC(=O)Cc2cccn2C)cc1,AC50,[3],13.4 µM (active)
CCC1(C)N=C(N)Nc2nc3cc(C)c(C)cc3n21 (stereo not drawn),AC50,[3],4.1 µM (active)
same,EC50,[12],> 260 µM (inactive)
Nc1nc2ccc(-c3nc4ccccc4o3)cc2s1,AC50,[3],2.44 µM (active)
CC(C)C(=O)Nc1ccc(O)c(-c2csc(N)n2)c1,IC50,Large T antigen,46.3 µM (active)
Nc1cc(CN2C(=O)c3ccccc3C2=O)cc(Cl)c1O,IC50,Large T antigen,8.42 µM (active)
CCC(/C=C1\Sc2ccc(OC)cc2N1CCCS(=O)(=O)[O-])=C\c1sc2ccc(OC)cc2[n+]1CC,AC50,[3],8.75 µM (active)
same,AC50,INS1,3.3 µM (active)
